Assay results reported in article PMC6200399 (ACS chemical biology, 2018).
Several values for one entry are separate records, joined by “and”; a condition that tells them apart may be missing. Equal values may be shown once.

What was measured:
RhlR [1] = biological target: T1, RhlR (Pseudomonas aeruginosa, UniProt P54292); test: E. coli RhlR reporter agonism assay; type: cell-based, P. aeruginosa; conditions: for % activation: compounds screened at 10 μM, RhlR activity relative to BHL at 1 mM, E. coli reporter; for EC50: read-out: EC50 (RhlR agonism, E. coli), E. coli RhlR reporter, dose-response; for fold more potent than BHL (RhlR agonism potency): EC50 relative to BHL
RhlR [2] = biological target: T1, RhlR; test: P. aeruginosa PAO-JP2; type: cell-based; conditions: read-out: EC50 (RhlR agonism, P. aeruginosa); P. aeruginosa PAO-JP2 prhlI-LVAgfp; in the presence of 100 nM OdDHL
LasR = LasR (Pseudomonas aeruginosa, UniProt P25084); test: E. coli LasR reporter antagonism assay; type: cell-based, P. aeruginosa; conditions: compounds at 1 mM, versus 2 nM OdDHL (Table S3)
RhlR [3] = biological target: T1, RhlR; test: E. coli RhlR reporter competitive antagonism assay versus 10 μM BHL; type: cell-based, P. aeruginosa; conditions: compounds screened at 1 mM in the presence of 10 μM BHL, relative to activation of 10 μM BHL alone

Sequence of LasR (P25084 whole entry): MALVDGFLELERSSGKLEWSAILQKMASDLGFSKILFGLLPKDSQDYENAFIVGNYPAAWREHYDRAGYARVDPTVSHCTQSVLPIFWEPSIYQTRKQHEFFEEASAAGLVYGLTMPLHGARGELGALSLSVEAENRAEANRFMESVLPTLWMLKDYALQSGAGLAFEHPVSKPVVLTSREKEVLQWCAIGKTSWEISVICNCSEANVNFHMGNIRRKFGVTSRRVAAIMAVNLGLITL
T1 sequence (P54292 whole entry): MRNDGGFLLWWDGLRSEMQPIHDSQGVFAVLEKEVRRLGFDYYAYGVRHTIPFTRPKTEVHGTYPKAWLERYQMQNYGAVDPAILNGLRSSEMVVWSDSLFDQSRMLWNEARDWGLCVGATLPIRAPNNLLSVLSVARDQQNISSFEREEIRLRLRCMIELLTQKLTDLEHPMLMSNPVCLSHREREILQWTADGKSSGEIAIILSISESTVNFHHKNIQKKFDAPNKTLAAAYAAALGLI

Compound | % activation (RhlR [1]) | EC50 (RhlR [2]) | EC50 (RhlR [1]) | also measured
propyl HL [Compound 4] | 25% |  |  | 
cyclopentyl HL [Compound 3, reference compound] | 76% | 1.22 µM | 1.58 µM | 
CCCC(=O)NC1CCCC1=O (stereo not shown) [Compound 28] | 35% | 14.3 µM | 27.4 µM | fold less active than BHL (RhlR agonism potency) (RhlR [1]; E. coli reporter EC50 relative to BHL, p < 0.05): under 3 fold
Butenyl HL [Compound 14] |  |  | 6.93 µM | 
CCCC(=O)N[C@H]1CCNC1=O [Compound 27] | 1% |  |  | 
CCCC(=O)N[C@H]1CCOC1=O [Compound 1, N-butanoyl-L-homoserine lactone, reference compound] | 51% |  |  | EC50 (RhlR [1]; listed as 1 (BHL)): 8.95 µM; EC50 (RhlR [1]; listed as BHL): ~10 µM and ~9 µM; LasR antagonism (% inhibition) (LasR): antagonize
CCCC(=O)NC1CCOC1 (stereo not shown) [Compound 30] | 0% |  |  | 
pentenyl HL [Compound 2, reference compound] | 54% |  | 7.93 µM | 
O=C(NC1CCOC1=O)C1CCC1 (stereo not shown) [Compound 17, cyclobutanoyl HL] | 79% | 1.41 µM | 1.78 µM | fold more potent than BHL (RhlR agonism potency) (RhlR [1]): ~10 fold; LasR antagonism (% inhibition) (LasR): > 70%
CCCC(=O)NC1CCSC1=O (stereo not shown) [Compound 26] | 71% | 3.82 µM | 4.87 µM | 
cyclopropyl HL [Compound 18] | 32% |  |  | 
CC(C)CC(=O)N[C@H]1CCOC1=O [Compound 7, isovaleryl HL] | 86% | 1.42 µM | 1.02 µM | fold more potent than BHL (RhlR agonism potency) (RhlR [1]): ~10 fold; LasR antagonism (% inhibition) (LasR): > 70%
CCCC(=O)N[C@@H]1CCOC1=O [Compound 25, D-BHL] | 2% |  |  | % inhibition (RhlR [3]): 11%; RhlR agonism at 1 mM (RhlR [1]; compound at 1 mM, E. coli reporter (Table S2)): marginal activity
CCC(C)C(=O)NC1CCOC1=O (stereo not shown) [Compound 8, 2-methylbutanoyl HL] | 55% |  | 7.77 µM | 
1-methyl-cyclopropanoyl HL [Compound 20] |  |  |  | % inhibition (RhlR [3]): 24%
